Structures can show the parent of a compound that is named as a salt.
Tests used:
5-HT4 receptor [1] = experiment: 5-HT-induced motility in dog gastric pouch; assay type: in vivo; conditions: dose of 10 μg kg^-1
Method: (§1) 5-HT4 RECEPTOR ANTAGONIST ACTIVITY
4) 5-HT-induced motility in dog gastric pouch
Compounds are tested in the in vivo method described in "Stimulation of canine motility by BRL 24924, a new gastric prokinetic agent", Bermudez et al, J. Gastrointestinal Motility, 2(4), 281-286.

5-HT4 receptor [2] = molecular target: T1, 5-HT4 receptor (Cavia porcellus, UniProt O70528); experiment: Guinea pig colon longitudinal muscle-myenteric plexus, 5-HT-evoked contraction; assay type: cell-based; conditions: guinea pig distal colon
T1 construct: guinea pig distal colon longitudinal muscle-myenteric plexus, 5-HT-evoked contraction
Method: as §1
Male guinea-pigs, weighing 250-400g are used. Longitudinal muscle-myentericplexus preparations, approximately 3 cm long, are obtained from the distal colon region. These are suspended under a 0.5 g load in isolated tissue baths containing Krebs solution bubbled with 5%, CO2 in O2 and maintained at 37° C. In all experiments, the Krebs solution also contains methiothepin 10^-7 M and granisetron 10^-6 M to block effects at 5-HT1, 5-HT2 and 5-HT3 receptors.
After construction of a simple concentration-response curve with 5-HT, using 30 s contact times and a 15 min dosing cycle, a concentration of 5-HT is selected so as to obtain a contraction of the muscle approximately 40-70% maximum(10^-9 M approx). The tissue is then alternately dosed every 15 min with this concentration of 5-HT and then with an approximately equi-effective concentration of the nicotine receptor stimulant, dimethylphenylpiperazinium (DMPP). After obtaining consistent responses to both 5-HT and DMPP, increasing concentrations of a putative 5-HT4 receptor antagonist are then added to the bathing solution. The effects of this compound are then determined as a percentage reduction of the contractions evoked by 5-HT or by DMPP. […] A compound which reduces the response to 5-HT but not to DMPP is believed to act as a 5-HT4 receptor antagonist.

5-HT4 receptor [3] = molecular target: 5-HT4 receptor (Sus scrofa, UniProt Q6Q253); experiment: Piglet atria spontaneous beating screen; assay type: cell-based; conditions: piglet spontaneously beating atria
Method: as §1
Compounds were tested in the piglet spontaneous beating screen (Naunyn-Schmiedeberg's Arch. Pharmacol 342, 619-622). pKB (-log10 KB) value for the compound of Examples 3 and 7 were 9.8 and 7.7 respectively.

T1 sequence (O70528 whole entry): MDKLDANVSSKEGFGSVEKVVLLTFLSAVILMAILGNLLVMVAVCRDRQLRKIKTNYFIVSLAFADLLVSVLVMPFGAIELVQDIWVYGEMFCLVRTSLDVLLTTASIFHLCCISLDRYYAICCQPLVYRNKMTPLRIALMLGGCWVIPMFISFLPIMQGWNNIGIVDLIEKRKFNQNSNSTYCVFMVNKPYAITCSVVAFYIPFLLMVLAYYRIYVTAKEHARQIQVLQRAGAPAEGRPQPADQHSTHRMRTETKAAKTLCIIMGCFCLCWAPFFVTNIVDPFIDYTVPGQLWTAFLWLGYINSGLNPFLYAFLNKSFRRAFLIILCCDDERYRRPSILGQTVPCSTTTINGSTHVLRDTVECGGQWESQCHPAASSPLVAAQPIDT
Chain of 5-HT4 receptor (Sus scrofa, UniProt Q6Q253) (Q6Q253 1-402): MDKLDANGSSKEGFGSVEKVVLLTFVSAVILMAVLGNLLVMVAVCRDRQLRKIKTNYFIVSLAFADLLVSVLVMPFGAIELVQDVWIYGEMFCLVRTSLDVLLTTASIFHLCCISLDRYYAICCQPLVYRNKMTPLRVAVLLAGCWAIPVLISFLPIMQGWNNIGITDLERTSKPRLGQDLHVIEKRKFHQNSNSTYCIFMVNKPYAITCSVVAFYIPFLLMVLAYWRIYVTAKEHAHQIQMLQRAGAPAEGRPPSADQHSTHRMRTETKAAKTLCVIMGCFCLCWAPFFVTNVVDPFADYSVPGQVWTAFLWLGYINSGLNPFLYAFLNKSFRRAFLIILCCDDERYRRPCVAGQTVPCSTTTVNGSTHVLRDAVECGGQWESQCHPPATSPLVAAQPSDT

| 5-HT4 receptor antagonist activity (in words) (5-HT4 receptor [2]) | pKB (-log10 KB) (5-HT4 receptor [3]) | Structure (SMILES) | inhibition of 5-HT-induced motility (5-HT4 receptor [1]) |
| --- | --- | --- | --- |
| particularly good activity | 9.8 | CCCCN1CCC(COC(=O)c2cc(Cl)cc3c2OCCC3)CC1 [Example E3, (1-Butyl-4-piperidyl)methyl-6-chloro-[2H]-3,4-dihydro-1-benzopyran-8-carboxylate] | showed inhibition |
|  | 7.7 | O=C(OCCN1CCCCC1)c1cc(Cl)cc2c1OCCC2 [Example E7, (1-Piperidyl)ethyl-6-chloro-[2H]-3,4-dihydro-1-benzopyran-8-carboxylate hydrochloride] |  |
| particularly good activity |  | CCCCN1CCC(CNC(=O)c2cc(Cl)cc3c2OCCC3)CC1 [Example E8, (1-Butyl-4-piperidyl)methyl-6-chloro-[2H]-3,4-dihydro-1-benzopyran-8-carboxamide hydrochloride] |  |
| particularly good activity |  | CCCCN1CCC(CNC(=O)c2cc(Cl)c(N)c3c2OCCC3)CC1 [Example E12, 5-Amino-(1-butyl-4-piperidyl)methyl-6-chloro-[2H]-3,4-dihydro-1-benzopyran-8-carboxamide] |  |

Reference: patent publication US6127379A, “Benzopyran, benzothiopyran and benzofuran derivatives as 5-HT4 antagonists” (SmithKline Beecham p.l.c., priority 1994, dated 2000)
